The term IC50 denotes the concentration at which inhibition is half-maximal. The EC50 is the concentration that produces a half-maximal response.

Molecules are shown by their SMILES.

Experiment [1] concerns the target purified recombinant human GAC (GLS1) (Homo sapiens (Human), UniProt O94925). As to the kind of experiment: GLS1 Enzymatic Activity Assay (dual-coupled enzymatic assay, resorufin/Amplex UltraRed readout).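 Also: glutamate from GAC coupled via glutamate oxidase and peroxidase to resorufin, read as fluorescence (ex 530, em 590 nm) kinetically or at 20 min, four-parameter logistic IC50 fit.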 Format: biochemical.
For experiment [2], the system named is A549 cells. Briefly: Proliferation Assay (A549 viability, Cell Titer Fluor, 72 hours). Format: cell-based. To be noted: Homo sapiens, A549, 72 h. The gist of the method: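 Cell Titer Fluor fluorescence after 72 h compound treatment (0.5% DMSO, 37 °C, 5% CO2) of A549 cells plated 24 h earlier at 1000/well. Four-parameter logistic fitting gave IC50.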

Sequence of purified recombinant human GAC (GLS1) (O94925 other isoform, or with tags, fused parts or gaps): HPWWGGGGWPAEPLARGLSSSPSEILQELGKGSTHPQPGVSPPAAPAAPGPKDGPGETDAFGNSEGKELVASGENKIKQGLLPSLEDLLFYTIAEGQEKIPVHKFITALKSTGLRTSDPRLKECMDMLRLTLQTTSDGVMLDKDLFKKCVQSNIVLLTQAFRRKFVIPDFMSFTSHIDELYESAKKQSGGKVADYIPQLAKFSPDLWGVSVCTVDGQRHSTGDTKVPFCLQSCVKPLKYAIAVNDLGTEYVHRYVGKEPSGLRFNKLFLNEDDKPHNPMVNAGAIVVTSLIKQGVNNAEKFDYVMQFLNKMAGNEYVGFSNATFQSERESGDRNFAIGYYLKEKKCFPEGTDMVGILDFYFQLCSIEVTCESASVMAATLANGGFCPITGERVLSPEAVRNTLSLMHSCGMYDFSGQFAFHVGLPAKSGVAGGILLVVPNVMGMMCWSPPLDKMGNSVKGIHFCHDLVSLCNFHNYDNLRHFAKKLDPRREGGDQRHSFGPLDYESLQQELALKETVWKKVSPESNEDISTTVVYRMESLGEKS

Regarding `O=C(Cc1cccc(OC(F)(F)F)c1)Nc1nnc(CCC(F)Cn2cc(C(=O)NCc3cncc(C(F)(F)F)c3)nn2)s1` (stereo not shown) [Example 496, 1-[2-fluoro-4-(5-{2-[3-(trifluoromethoxy)phenyl]acetamido}-1,3,4-thiadiazol-2-yl)butyl]-N-{[5-(trifluoromethyl)pyridin-3-yl]methyl}-1H-1,2,3-triazole-4-carboxamide], in experiment [1], the IC50 was less than 0.1 µM. In experiment [2], this molecule displayed an EC50 of less than 0.1 µM.

On to `CNC(=O)c1cn(CC(F)CCc2nnc(NC(=O)Cc3cccc(OC(F)(F)F)c3)s2)nn1` (stereo not shown) [Example 497, 1-(2-fluoro-4-(5-(2-(3-(trifluoromethoxy)phenyl)acetamido)-1,3,4-thiadiazol-2-yl)butyl)-N-methyl-1H-1,2,3-triazole-4-carboxamide], for which, in experiment [1], the IC50 is less than 0.1 µM. In addition, the EC50 in experiment [2] lay within 0.1 to 0.5 µM.

Turning to `O=C(Cc1cccc(OC(F)(F)F)c1)Nc1nnc(CCC(F)Cn2cc(C(=O)NCc3ccc(C(F)(F)F)nc3)nn2)s1` (stereo not shown) [Example 498, 1-[2-fluoro-4-(5-{2-[3-(trifluoromethoxy)phenyl]acetamido}-1,3,4-thiadiazol-2-yl)butyl]-N-{[6-(trifluoromethyl)pyridin-3-yl]methyl}-1H-1,2,3-triazole-4-carboxamide], the half-maximal inhibitory concentration (IC50) in experiment [1] is less than 0.1 µM. Also, the EC50 in experiment [2] was less than 0.1 µM.

`O=C(NCc1cc(C(F)(F)F)ccn1)c1cn(CC(F)CCc2nnc(C(=O)NCC(F)(F)F)s2)nn1` (stereo not shown) [Example 499, 5-{3-fluoro-4-[4-({[4-(trifluoromethyl)pyridin-2-yl]methyl}carbamoyl)-1H-1,2,3-triazol-1-yl]butyl}-N-(2,2,2-trifluoroethyl)-1,3,4-thiadiazole-2-carboxamide]: in experiment [1], the IC50 is 0.1 to 0.5 µM. The molecule also registered an EC50 in experiment [2] of 0.1 to 0.5 µM.

For the molecule `O=C(NCc1cncc(C(F)(F)F)c1)c1cn(CC(F)CCc2nnc(C(=O)NCC(F)(F)F)s2)nn1` (stereo not shown) [Example 500, 5-{3-fluoro-4-[4-({[5-(trifluoromethyl)pyridin-3-yl]methyl}carbamoyl)-1H-1,2,3-triazol-1-yl]butyl}-N-(2,2,2-trifluoroethyl)-1,3,4-thiadiazole-2-carboxamide], the IC50 in experiment [1] is 0.1 to 0.5 µM. The molecule also showed an EC50 in experiment [2] of 0.1 to 0.5 µM.

For the molecule `CNC(=O)c1cn(CC(F)CCc2nnc(C(=O)NCc3cncc(C(F)(F)F)c3)s2)nn1` (stereo not shown) [Example 501, 5-{3-fluoro-4-[4-(methylcarbamoyl)-1H-1,2,3-triazol-1-yl]butyl}-N-{[- (trifluoromethyl)pyridin-3-yl]methyl}-1,3,4-thiadiazole-2-carboxamide], in experiment [1], the IC50 lay within 0.1 to 0.5 µM. In experiment [2], this molecule showed an EC50 of 0.1 to 0.5 µM.

As for `O=C(NCCC(F)(F)F)c1cn(CC(F)CCc2nnc(C(=O)NCc3cncc(C(F)(F)F)c3)s2)nn1` (stereo not shown) [Example 502, 5-(3-fluoro-4-{4-[(3,3,3-trifluoropropyl)carbamoyl]-1H-1,2,3-triazol-1-yl}butyl)-N-{[5-(trifluoromethyl)pyridin-3-yl]methyl}-1,3,4-thiadiazole-2-carboxamide], the IC50 in experiment [1] was 0.1 to 0.5 µM. This molecule also had a half-maximal effective concentration (EC50) in experiment [2] of 0.1 to 0.5 µM.

Take `CNC(=O)c1nnc(CCC(F)Cn2cc(C(=O)NCc3cc(C(F)(F)F)ccn3)nn2)s1` (stereo not shown) [Example 503, 5-{3-fluoro-4-[4-({[4-(trifluoromethyl)pyridin-2-yl]methyl}carbamoyl)-1H-1,2,3-triazol-1-yl]butyl}-N-methyl-1,3,4-thiadiazole-2-carboxamide]: the 50% inhibitory concentration (IC50) in experiment [1] was 0.1 to 0.5 µM. Also, in experiment [2], the EC50 is 0.5 to 5 µM.

Consider `CNC(=O)c1nnc(CCC(F)Cn2cc(C(=O)NCc3cccc(OC(F)(F)F)c3)nn2)s1` (stereo not shown) [Example 504, 5-{3-fluoro-4-[4-({[3-(trifluoromethoxy)phenyl]methyl}carbamoyl)-1H-1,2,3-triazol-1-yl]butyl}-N-methyl-1,3,4-thiadiazole-2-carboxamide], for which the IC50 in experiment [1] is less than 0.1 µM. The same molecule yielded a half-maximal effective concentration (EC50) in experiment [2] of 0.1 to 0.5 µM.

With `N#CCNC(=O)c1cn(CC(F)CCc2nnc(NC(=O)Cc3cccc(OC(F)(F)F)c3)s2)nn1` (stereo not shown) [Example 505, N-(cyanomethyl)-1-[2-fluoro-4-(5-{2-[3-(trifluoromethoxy)phenyl]acetamido}-1,3,4-thiadiazol-2-yl)butyl]-1H-1,2,3-triazole-4-carboxamide], the 50% inhibitory concentration (IC50) in experiment [1] is less than 0.1 µM. This molecule also yielded an EC50 in experiment [2] of 0.1 to 0.5 µM.

As for `O=C(NCC(F)(F)F)c1cn(CC(F)CCc2nnc(C(=O)NCc3cncc(C(F)(F)F)c3)s2)nn1` (stereo not shown) [Example 506, 5-(3-fluoro-4-{4-[(2,2,2-trifluoroethyl)carbamoyl]-1H-1,2,3-triazol-1-yl}butyl)-N-{[5-(trifluoromethyl)pyridin-3-yl]methyl}-1,3,4-thiadiazole-2-carboxamide], the IC50 in experiment [1] was 0.1 to 0.5 µM. The same molecule showed an EC50 in experiment [2] of 0.1 to 0.5 µM.

Turning to `CNC(=O)c1nnc(CCC(F)Cn2cc(C(=O)NCc3cncc(C(F)(F)F)c3)nn2)s1` (stereo not shown) [Example 507, 5-{3-fluoro-4-[4-({[5-(trifluoromethyl)pyridin-3-yl]methyl}carbamoyl)-1H-1,2,3-triazol-1-yl]butyl}-N-methyl-1,3,4-thiadiazole-2-carboxamide], the IC50 in experiment [1] lay in the range of 0.1 to 0.5 µM. The half-maximal effective concentration (EC50) in experiment [2] is 0.1 to 0.5 µM.

For `O=C(NCC(F)(F)F)c1cn(CC(F)CCc2nnc(C(=O)NCc3cc(C(F)(F)F)ccn3)s2)nn1` (stereo not shown) [Example 509, 5-(3-fluoro-4-{4-[(2,2,2-trifluoroethyl)carbamoyl]-1H-1,2,3-triazol-1-yl}butyl)-N-{[4-(trifluoromethyl)pyridin-2-yl]methyl}-1,3,4-thiadiazole-2-carboxamide], in experiment [1], the IC50 was in the range of 0.1 to 0.5 µM. Besides, the half-maximal effective concentration (EC50) in experiment [2] was in the range of 0.1 to 0.5 µM.

Regarding `O=C(NCCC(F)(F)F)c1cn(CC(F)CCc2nnc(C(=O)NCc3cc(C(F)(F)F)ccn3)s2)nn1` (stereo not shown) [Example 510, 5-(3-fluoro-4-{4-[(3,3,3-trifluoropropyl)carbamoyl]-1H-1,2,3-triazol-1-yl}butyl)-N-{[4-(trifluoromethyl)pyridin-2-yl]methyl}-1,3,4-thiadiazole-2-carboxamide], in experiment [1], the IC50 fell in the range of 0.1 to 0.5 µM. Also, the EC50 in experiment [2] was 0.5 to 5 µM.

For the molecule `O=C(NCc1cc(C(F)(F)F)ccn1)c1cn(CC(F)CCc2nnc(C(=O)NCCC(F)(F)F)s2)nn1` (stereo not shown) [Example 511, 5-{3-fluoro-4-[4-({[4-(trifluoromethyl)pyridin-2-yl]methyl}carbamoyl)-1H-1,2,3-triazol-1-yl]butyl}-N-(3,3,3-trifluoropropyl)-1,3,4-thiadiazole-2-carboxamide], the IC50 in experiment [1] is 0.1 to 0.5 µM. The molecule further showed an EC50 in experiment [2] of 0.5 to 5 µM.

On to `O=C(NCc1cncc(C(F)(F)F)c1)c1cn(CC(F)CCc2nnc(C(=O)NCCC(F)(F)F)s2)nn1` (stereo not shown) [Example 512, 5-{3-fluoro-4-[4-({[5-(trifluoromethyl)pyridin-3-yl]methyl}carbamoyl)-1H-1,2,3-triazol-1-yl]butyl}-N-(3,3,3-trifluoropropyl)-1,3,4-thiadiazole-2-carboxamide], for which the 50% inhibitory concentration (IC50) in experiment [1] fell in the range of 0.1 to 0.5 µM. This molecule also showed an EC50 in experiment [2] of 0.1 to 0.5 µM.

As for `O=C(Cc1ccccn1)Nc1nnc(CCC(F)Cn2cc(C(=O)NCc3cccc(OC(F)(F)F)c3)nn2)s1` (stereo not shown) [Example 513, 1-(2-fluoro-4-{5-[2-(pyridin-2-yl)acetamido]-1,3,4-thiadiazol-2-yl}butyl)-N-{[3-(trifluoromethoxy)phenyl]methyl}-1H-1,2,3-triazole-4-carboxamide], the half-maximal inhibitory concentration (IC50) in experiment [1] is less than 0.1 µM. This molecule came in with an EC50 in experiment [2] of less than 0.1 µM.

In the case of `O=C(Cc1ccccn1)Nc1nnc(CCC(F)Cn2cc(C(=O)NCc3cc(OC(F)(F)F)ccc3F)nn2)s1` (stereo not shown) [Example 514, 1-(2-fluoro-4-{5-[2-(pyridin-2-yl)acetamido]-1,3,4-thiadiazol-2-yl}butyl)-N-{[2-fluoro-5-(trifluoromethoxy)phenyl]methyl}-1H-1,2,3-triazole-4-carboxamide], the IC50 in experiment [1] was less than 0.1 µM. The same molecule displayed an EC50 in experiment [2] of less than 0.1 µM.

In the case of `N#CCNC(=O)c1nnc(CCC(F)Cn2cc(C(=O)NCc3cccc(OC(F)(F)F)c3)nn2)s1` (stereo not shown) [Example 515, N-(cyanomethyl)-5-{3-fluoro-4-[4-({[3-(trifluoromethoxy)phenyl]methyl}carbamoyl)-1H-1,2,3-triazol-1-yl]butyl}-1,3,4-thiadiazole-2-carboxamide], the IC50 in experiment [1] is less than 0.1 µM. For the same molecule, in experiment [2], the EC50 was in the range of 0.1 to 0.5 µM.

Regarding `O=C(Cc1cc(OC(F)(F)F)ccc1F)Nc1nnc(CCC(F)Cn2cc(C(=O)NCc3ccc(C(F)(F)F)cn3)nn2)s1` (stereo not shown) [Example 516, 1-[2-fluoro-4-(5-{2-[2-fluoro-5-(trifluoromethoxy)phenyl]acetamido}-1,3,4-thiadiazol-2-yl)butyl]-N-{[5-(trifluoromethyl)pyridin-2-yl]methyl}-1H-1,2,3-triazole-4-carboxamide], in experiment [1], the 50% inhibitory concentration (IC50) is less than 0.1 µM. Besides, the EC50 in experiment [2] was less than 0.1 µM.

For `O=C(Cc1cc(OC(F)(F)F)ccc1F)Nc1nnc(CCC(F)Cn2cc(C(=O)NCc3cc(C(F)(F)F)ccn3)nn2)s1` (stereo not shown) [Example 517, 1-[2-fluoro-4-(5-{2-[2-fluoro-5-(trifluoromethoxy)phenyl]acetamido}-1,3,4-thiadiazol-2-yl)butyl]-N-{[4-(trifluoromethyl)pyridin-2-yl]methyl}-1H-1,2,3-triazole-4-carboxamide], the IC50 in experiment [1] is less than 0.1 µM. Moreover, the EC50 in experiment [2] was less than 0.1 µM.

As for `CNC(=O)c1cn(CC(F)CCc2nnc(NC(=O)Cc3cc(OC(F)(F)F)ccc3F)s2)nn1` (stereo not shown) [Example 518, 1-[2-fluoro-4-(5-{2-[2-fluoro-5-(trifluoromethoxy)phenyl]acetamido}-1,3,4-thiadiazol-2-yl)butyl]-N-methyl-1H-1,2,3-triazole-4-carboxamide], the IC50 in experiment [1] is less than 0.1 µM. Also, in experiment [2], the EC50 was less than 0.1 µM.

Take `CNC(=O)c1cn(CC(F)CCc2nnc(NC(=O)Cc3ccccn3)s2)nn1` (stereo not shown) [Example 519, 1-(2-fluoro-4-{5-[2-(pyridin-2-yl)acetamido]-1,3,4-thiadiazol-2-yl}butyl)-N-methyl-1H-1,2,3-triazole-4-carboxamide]: in experiment [1], the IC50 was in the range of 0.1 to 0.5 µM. In experiment [2], this molecule yielded an EC50 of 0.5 to 5 µM.
